From patent US12276654B2, “Chemical probe-dependent evaluation of protein activity and uses thereof” (The University of Chicago, priority 2017, dated 2025)
Entries after “also recorded” stand apart in the source; their conditions may differ.

Tests used:
Assay type in all cases: cell-based
NCEH1 [1] = biological target: T1, NCEH1 (Homo sapiens, UniProt Q6PIU2); assay: α-Biotin Western blot gel-based profiling of NCEH1 activity (FP-Bio labeling) in SKOV3 cells; parameters: endogenous NCEH1 activity in SKOV3 cells; endogenous in cells; host or cells: SKOV3; conditions: 1 μM, 4 hr pre-treatment, equivalent NCEH1 protein levels
T1 sequence (Q6PIU2 1-408): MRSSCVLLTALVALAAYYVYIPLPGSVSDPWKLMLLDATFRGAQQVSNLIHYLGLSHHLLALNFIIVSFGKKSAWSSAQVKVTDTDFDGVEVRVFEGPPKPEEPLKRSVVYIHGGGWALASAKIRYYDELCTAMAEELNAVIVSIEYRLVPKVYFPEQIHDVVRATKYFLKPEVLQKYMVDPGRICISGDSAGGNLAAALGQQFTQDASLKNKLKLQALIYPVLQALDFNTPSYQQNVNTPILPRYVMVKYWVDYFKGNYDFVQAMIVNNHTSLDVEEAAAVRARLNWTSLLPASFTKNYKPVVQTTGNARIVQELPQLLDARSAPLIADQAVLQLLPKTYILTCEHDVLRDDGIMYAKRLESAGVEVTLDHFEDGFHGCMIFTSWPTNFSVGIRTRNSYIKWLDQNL
Procedure: Cells were grown in 6-well plates or 6-cm dishes until reaching 80-90% confluence. FP-biotin (FP-Bio, 10 mM stock in DMSO) was diluted to 2 μM in DMEM, and added to cells at 37° C. for 40 minutes. Cells were then washed in PBS, scraped and lysed by sonication using PBS buffer supplemented with protease inhibitor cocktail (Sigma, #92714-1BTL). Protein concentration was determined by BCA assay (Pierce, #23225), lysate was diluted in Laemmli buffer (4×: 200 mM Tris pH 6.8, 400 mM DTT, 8% SDS, 0.4% bromophenol, 40% glycerol), heated to 95° C. for 5 minutes, and resolved on a 4-12% PAGE gel (ThermoFisher, NP0322BOX). PAGE gels were processed for Western blot as indicated above with IR800-conjugated streptavidin (LI-COR, #926-32230) overnight at 4° C. Images were captured by Odyssey CLx imaging system (LI-COR). Quantification of band intensities was performed using ImageJ software (NIH).

NCEH1 [2] = biological target: T1, NCEH1; assay: sADPL target engagement in patient-derived hPBMCs; parameters: The human peripheral blood mononuclear cells (hPBMCs) were extracted from patient-derived blood samples; endogenous in cells; host or cells: primary human PBMCs from patient blood; conditions: hPBMCs from patient-derived blood; inhibitor prior to family-wide probe
Procedure: FIG. 24. Target Engagement in Patient-derived PBMCs. The human peripheral blood mononuclear cells (hPBMCs) were extracted from patient-derived blood samples. Likewise, hPBMCs were treated with DMSO as the control, with inhibitor prior to family wide probe to pre-block the active site, or with family-wide probe directly. Then sADPL workflow was applied to read out the CT difference.

PAFAH2 = biological target: T2, PAFAH2 (Homo sapiens, UniProt Q99487); assay: ADPL quantification of PAFAH2 activity in stable PAFAH2 expressing PC3 cells; conditions: same dose-range (0-1 μM)
T2 construct: Full-length, human ESD (NM_001984) and PAFAH2 (NM_000437) in pCMV6 entry vectors with C-terminal Myc-DDK tag
Procedure: Cells were seeded in the 12-well chamber slide, typically at 10,000-30,000 cells per well (Ibidi, #81201). To get an even distribution of the cells, the chamber slide was pre-wetted with cell culture medium, drained off, and the chamber was left at room temperature for 5-10 min after seeding. Cells at 80-90% confluency were pulse treated with either FP-Bio (2 μM) in DMEM and incubated at 37° C. for 40 min or Capthepsin probe (5 μM) in complete medium and incubated at 37° C. for 3 hr. Cells were washed with PBS, fixed with 4% paraformaldehyde in PBS at room temperature for 15 minutes, washed twice with PBS for 5 minutes each at room temperature with orbital shaking and then permeabilized in 0.5% Triton X-100 in PBS at room temperature for 15 minutes. Finally, cells were washed twice with 0.05% Tween-20 in PBS for 5 minutes each at room temperature with orbital shaking.
Prior to antibody incubation, the chamber was removed and the well boundaries delineated with the hydrophobic barrier pen (Vector laboratories, #H-4000). One-drop Duolink blocking buffer (Sigma, #DUO92004) was added and the slide was incubated at 37° C. for 30 minutes in a humidified chamber. […]

CC(C)c1ccccc1OC(=O)NCCc1ccc2ccccc2c1 [JW480]
NCEH1 activity by gel-based profiling (FP-Bio labeling) (NCEH1 [1]): significant and selective inhibition of NCEH1 activity; also recorded: specifically inhibits labeling of NCEH1
activity in inhibitor competition group by sADPL in hPBMCs (NCEH1 [2]): bring the activities down to the levels of DMSO controls
effect on PAFAH2 activity (ADPL signal) (PAFAH2): no inhibition of target signal was observed; also recorded: no effect
